The text below walks through data of ChEMBL document CHEMBL6120979, “Cell penetrable peptide nucleic acids targeting PDZK1IP1 with anti-inflammatory potential in human keratinocytes” (Bioorg Med Chem Lett, 2025).

The subject of test [1] is RNA. Description: Binding affinity to complementary RNA (unknown origin) in sodium phosphate buffer assessed as melting temperature of PNA-RNA duplex. The test is classed as nucleic-acid assay.
For test [2], the system named is RNA. Description: Binding affinity to complementary RNA (unknown origin) with mismatch bases in sodium phosphate buffer. It counts as nucleic-acid assay.

The source made the active and inactive calls. The calls are words filed in the database; no cut-off is given here. Bounds are passed on as bounds.

In general, Tm refers to the temperature at which the thermal transition is half complete. Take `Cc1cn(CC(=O)N(CCNC(=O)CN(CCNC(=O)CN(CCNC(=O)CN(CCNC(=O)CN(CCNC(=O)CN(CCNC(=O)CN(CCNC(=O)CN(CCNC(=O)CN(CCNC(=O)CN(CCNC(=O)CN(CCNC(=O)CN(CCNC(=O)CN(CCN)C(=O)Cn2cnc3c(N)nc(NCCCCCN)nc32)C(=O)Cn2ccc(N)nc2=O)C(=O)Cn2cc(C)c(=O)[nH]c2=O)C(=O)Cn2ccc(N)nc2=O)C(=O)Cn2cnc3c(N)nc(NCCCCCN)nc32)C(=O)Cn2ccc(N)nc2=O)C(=O)Cn2cnc3c(=O)[nH]c(N)nc32)C(=O)Cn2cnc3c(=O)[nH]c(N)nc32)C(=O)Cn2ccc(N)nc2=O)C(=O)Cn2cc(C)c(=O)[nH]c2=O)C(=O)Cn2cc3cc(COCCN)[nH]c3nc2=O)C(=O)Cn2ccc(N)nc2=O)CC(=O)NCCN(CC(=O)NCCN(CC(=O)NCCN(CC(=O)NCCN(CC(=O)NCCN(CC(=O)NCCN(CC(=O)NCCN(CC(=O)O)C(=O)Cn2cnc3c(N)nc(NCCCCCN)nc32)C(=O)Cn2ccc(N)nc2=O)C(=O)Cn2cnc3c(=O)[nH]c(N)nc32)C(=O)Cn2cnc3c(=O)[nH]c(NCCCCCCN)nc32)C(=O)Cn2cc(C)c(=O)[nH]c2=O)C(=O)Cn2ccc(N)nc2=O)C(=O)Cn2ccc(N)nc2=O)c(=O)[nH]c1=O`: in the test on RNA [1], the Tm is above 90 °C. Besides, the outcome in the test with RNA [2] was inactive.

On to `Cc1cn(CC(=O)N(CCNC(=O)CN(CCNC(=O)CN(CCNC(=O)CN(CCNC(=O)CN(CCN)C(=O)Cn2ccc(N)nc2=O)C(=O)Cn2cc(C)c(=O)[nH]c2=O)C(=O)Cn2cc3cc(COCCN)[nH]c3nc2=O)C(=O)Cn2ccc(N)nc2=O)CC(=O)NCCN(CC(=O)NCCN(CC(=O)NCCN(CC(=O)NCCN(CC(=O)NCCN(CC(=O)NCCN(CC(=O)NCCN(CC(=O)NCCN(CC(=O)NCCN(CC(=O)O)C(=O)Cn2cc3cc(COCCN)[nH]c3nc2=O)C(=O)Cn2ccc(N)nc2=O)C(=O)Cn2cnc3c(N)nc(NCCCCCN)nc32)C(=O)Cn2ccc(N)nc2=O)C(=O)Cn2cnc3c(=O)[nH]c(N)nc32)C(=O)Cn2cnc3c(=O)[nH]c(NCCCCCCN)nc32)C(=O)Cn2cc(C)c(=O)[nH]c2=O)C(=O)Cn2cc3cc(COCCN)[nH]c3nc2=O)C(=O)Cn2ccc(N)nc2=O)c(=O)[nH]c1=O`, for which the Tm with RNA [1] is 79 °C. Further, the result with RNA [2] was inactive.

Take `Cc1cn(CC(=O)N(CCNC(=O)CN(CCNC(=O)CN(CCN)C(=O)Cn2ccc(N)nc2=O)C(=O)Cn2ccc(N)nc2=O)CC(=O)NCCN(CC(=O)NCCN(CC(=O)NCCN(CC(=O)NCCN(CC(=O)NCCN(CC(=O)NCCN(CC(=O)NCCN(CC(=O)NCCN(CC(=O)NCCN(CC(=O)NCCN(CC(=O)NCCN(CC(=O)O)C(=O)Cn2cnc3c(=O)[nH]c(N)nc32)C(=O)Cn2cnc3c(N)ncnc32)C(=O)Cn2cc3cc(COCCN)[nH]c3nc2=O)C(=O)Cn2ccc(N)nc2=O)C(=O)Cn2cnc3c(N)nc(NCCCCCN)nc32)C(=O)Cn2ccc(N)nc2=O)C(=O)Cn2cnc3c(=O)[nH]c(N)nc32)C(=O)Cn2cnc3c(=O)[nH]c(NCCCCCCN)nc32)C(=O)Cn2cc(C)c(=O)[nH]c2=O)C(=O)Cn2ccc(N)nc2=O)C(=O)Cn2cc3cc(COCCN)[nH]c3nc2=O)c(=O)[nH]c1=O`: in the test with RNA [1], the Tm was 78.1 °C. In the test with RNA [2], the result was inactive.

Take `Cc1cn(CC(=O)N(CCNC(=O)CN(CCNC(=O)CN(CCNC(=O)CN(CCNC(=O)CN(CCNC(=O)CN(CCN)C(=O)Cn2ccc(N)nc2=O)C(=O)Cn2cnc3c(N)nc(NCCCCCN)nc32)C(=O)Cn2cnc3c(=O)[nH]c(N)nc32)C(=O)Cn2cnc3c(=O)[nH]c(N)nc32)C(=O)Cn2cc3cc(COCCN)[nH]c3nc2=O)CC(=O)NCCN(CC(=O)NCCN(CC(=O)NCCN(CC(=O)NCCN(CC(=O)NCCN(CC(=O)NCCN(CC(=O)NCCN(CC(=O)NCCN(CC(=O)O)C(=O)Cn2cnc3c(=O)[nH]c(NCCCCCCN)nc32)C(=O)Cn2cnc3c(=O)[nH]c(N)nc32)C(=O)Cn2cnc3c(=O)[nH]c(N)nc32)C(=O)Cn2cnc3c(=O)[nH]c(NCCCCCCN)nc32)C(=O)Cn2cc(C)c(=O)[nH]c2=O)C(=O)Cn2cc3cc(COCCN)[nH]c3nc2=O)C(=O)Cn2ccc(N)nc2=O)C(=O)Cn2ccc(N)nc2=O)c(=O)[nH]c1=O`: in the test with RNA [2], the result was inactive.

With `Cc1cn(CC(=O)N(CCN)CC(=O)NCCN(CC(=O)NCCN(CC(=O)NCCN(CC(=O)NCCN(CC(=O)NCCN(CC(=O)NCCN(CC(=O)NCCN(CC(=O)NCCN(CC(=O)NCCN(CC(=O)NCCN(CC(=O)NCCN(CC(=O)NCCN(CC(=O)NCCN(CC(=O)O)C(=O)Cn2ccc(N)nc2=O)C(=O)Cn2cc3cc(COCCN)[nH]c3nc2=O)C(=O)Cn2cc(C)c(=O)[nH]c2=O)C(=O)Cn2ccc(N)nc2=O)C(=O)Cn2cnc3c(=O)[nH]c(NCCCCCCN)nc32)C(=O)Cn2cnc3c(=O)[nH]c(N)nc32)C(=O)Cn2cnc3c(N)nc(NCCCCCN)nc32)C(=O)Cn2ccc(N)nc2=O)C(=O)Cn2cnc3c(=O)[nH]c(NCCCCCCN)nc32)C(=O)Cn2cc(C)c(=O)[nH]c2=O)C(=O)Cn2cnc3c(=O)[nH]c(NCCCCCCN)nc32)C(=O)Cn2cc(C)c(=O)[nH]c2=O)C(=O)Cn2cnc3c(=O)[nH]c(NCCCCCCN)nc32)c(=O)[nH]c1=O`, the Tm in the test on RNA [1] is 70.5 °C. Besides, the result in the test on RNA [2] was inactive.

Turning to `Cc1cn(CC(=O)N(CCNC(=O)CN(CCNC(=O)CN(CCNC(=O)CN(CCNC(=O)CN(CCNC(=O)CN(CCNC(=O)CN(CCNC(=O)CN(CCNC(=O)CN(CCN)C(=O)Cn2cnc3c(N)nc(NCCCCCN)nc32)C(=O)Cn2ccc(N)nc2=O)C(=O)Cn2cnc3c(=O)[nH]c(N)nc32)C(=O)Cn2cnc3c(=O)[nH]c(NCCCCCCN)nc32)C(=O)Cn2ccc(N)nc2=O)C(=O)Cn2cc(C)c(=O)[nH]c2=O)C(=O)Cn2cc3cc(COCCN)[nH]c3nc2=O)C(=O)Cn2ccc(N)nc2=O)CC(=O)NCCN(CC(=O)NCCN(CC(=O)NCCN(CC(=O)NCCN(CC(=O)NCCN(CC(N)=O)C(=O)Cn2cnc3c(=O)[nH]c(N)nc32)C(=O)Cn2cnc3c(=O)[nH]c(NCCCCCCN)nc32)C(=O)Cn2cc(C)c(=O)[nH]c2=O)C(=O)Cn2ccc(N)nc2=O)C(=O)Cn2cc3cc(COCCN)[nH]c3nc2=O)c(=O)[nH]c1=O`, the Tm in the test on RNA [1] was determined as 81 °C. Also, in the test on RNA [2], the result was inactive.

Take `Cc1cn(CC(=O)N(CCNC(=O)CN(CCNC(=O)CN(CCNC(=O)CN(CCNC(=O)CN(CCNC(=O)CN(CCNC(=O)CN(CCNC(=O)CN(CCNC(=O)CN(CCNC(=O)CN(CCNC(=O)CN(CCNC(=O)CN(CCNC(=O)CN(CCNC(=O)CN(CCN)C(=O)Cn2cc(C)c(=O)[nH]c2=O)C(=O)Cn2ccc(N)nc2=O)C(=O)Cn2cnc3c(N)nc(NCCCCCN)nc32)C(=O)Cn2cc3cc(COCCN)[nH]c3nc2=O)C(=O)Cn2cnc3c(=O)[nH]c(N)nc32)C(=O)Cn2cnc3c(=O)[nH]c(NCCCCCCN)nc32)C(=O)Cn2ccc(N)nc2=O)C(=O)Cn2cc(C)c(=O)[nH]c2=O)C(=O)Cn2cc3cc(COCCN)[nH]c3nc2=O)C(=O)Cn2ccc(N)nc2=O)C(=O)Cn2cc(C)c(=O)[nH]c2=O)C(=O)Cn2ccc(N)nc2=O)C(=O)Cn2cc3cc(COCCN)[nH]c3nc2=O)CC(=O)O)c(=O)[nH]c1=O`: the Tm in the test on RNA [1] came to 80.4 °C. The outcome in the test with RNA [2] was inactive.

Consider `Cc1cn(CC(=O)N(CCNC(=O)CN(CCNC(=O)CN(CCNC(=O)CN(CCNC(=O)CN(CCNC(=O)CN(CCN)C(=O)Cn2cnc3c(N)nc(NCCCCCN)nc32)C(=O)Cn2cnc3c(N)ncnc32)C(=O)Cn2cnc3c(=O)[nH]c(N)nc32)C(=O)Cn2cnc3c(=O)[nH]c(N)nc32)C(=O)Cn2cc(C)c(=O)[nH]c2=O)CC(=O)NCCN(CC(=O)NCCN(CC(=O)NCCN(CC(=O)NCCN(CC(=O)NCCN(CC(=O)NCCN(CC(=O)NCCN(CC(=O)NCCN(CC(=O)NCCN(CC(=O)NCCN(CC(=O)NCCN(CC(=O)NCCN(CC(=O)NCCN(CC(=O)NCCN(CC(=O)O)C(=O)Cn2cnc3c(N)nc(NCCCCCN)nc32)C(=O)Cn2ccc(N)nc2=O)C(=O)Cn2cnc3c(N)ncnc32)C(=O)Cn2cnc3c(N)nc(NCCCCCN)nc32)C(=O)Cn2cc(C)c(=O)[nH]c2=O)C(=O)Cn2ccc(N)nc2=O)C(=O)Cn2ccc(N)nc2=O)C(=O)Cn2cnc3c(=O)[nH]c(N)nc32)C(=O)Cn2cnc3c(=O)[nH]c(N)nc32)C(=O)Cn2cnc3c(N)nc(NCCCCCN)nc32)C(=O)Cn2ccc(N)nc2=O)C(=O)Cn2ccc(N)nc2=O)C(=O)Cn2cc3cc(COCCN)[nH]c3nc2=O)C(=O)Cn2ccc(N)nc2=O)c(=O)[nH]c1=O`, for which the midpoint of thermal melting (Tm) with RNA [1] was above 90 °C. For the same compound, in the test with RNA [2], the result was inactive.

As for `Cc1cn(CC(=O)N(CCNC(=O)CN(CCNC(=O)CN(CCN)C(=O)Cn2ccc(N)nc2=O)C(=O)Cn2cc3cc(COCCN)[nH]c3nc2=O)CC(=O)NCCN(CC(=O)NCCN(CC(=O)NCCN(CC(=O)NCCN(CC(=O)NCCN(CC(=O)NCCN(CC(=O)NCCN(CC(=O)NCCN(CC(=O)NCCN(CC(=O)NCCN(CC(=O)NCCN(CC(=O)NCCN(CC(=O)NCCN(CC(=O)NCCN(CC(=O)NCCN(CC(=O)NCCN(CC(=O)NCCN(CC(=O)O)C(=O)Cn2ccc(N)nc2=O)C(=O)Cn2cnc3c(=O)[nH]c(NCCCCCCN)nc32)C(=O)Cn2ccc(N)nc2=O)C(=O)Cn2ccc(N)nc2=O)C(=O)Cn2cnc3c(=O)[nH]c(NCCCCCCN)nc32)C(=O)Cn2cnc3c(=O)[nH]c(N)nc32)C(=O)Cn2cc(C)c(=O)[nH]c2=O)C(=O)Cn2ccc(N)nc2=O)C(=O)Cn2cnc3c(N)ncnc32)C(=O)Cn2cnc3c(N)nc(NCCCCCN)nc32)C(=O)Cn2cnc3c(N)ncnc32)C(=O)Cn2cnc3c(=O)[nH]c(N)nc32)C(=O)Cn2cc(C)c(=O)[nH]c2=O)C(=O)Cn2ccc(N)nc2=O)C(=O)Cn2ccc(N)nc2=O)C(=O)Cn2cnc3c(N)nc(NCCCCCN)nc32)C(=O)Cn2ccc(N)nc2=O)c(=O)[nH]c1=O`, in the test on RNA [1], the Tm was determined as 79.2 °C. Further, in the test with RNA [2], the outcome was inactive.
